Article PMC2248166, “Quantitative peptide binding motifs for 19 human and mouse MHC class I molecules derived using positional scanning combinatorial peptide libraries” (Immunome Research, 2008)
pIC50: −log10 of the molar value. Where a SMILES comes first, the peptide text is derived from it.

The compounds below were run against HLA B*0801 (Homo sapiens, UniProt P01889, A93T/A95T/D138N/E176V/E187T/K202T/Q94N/R180D/S35A/V36M/Y33D/Y91F) (assay: biochemical).
Assay type: binding
Work on `CC[C@H](C)[C@H](NC(=O)[C@H](Cc1c[nH]cn1)NC(=O)[C@@H](NC(=O)[C@@H](N)CCSC)C(C)C)C(=O)N[C@@H](Cc1ccc(O)cc1)C(=O)N[C@@H](Cc1ccccc1)C(=O)N[C@H](C(=O)N[C@@H](CO)C(=O)N[C@@H](CC(C)C)C(=O)O)C(C)C` [3102.0878] (H-MVHIYFVSL-OH) yielded a pIC50 of 8.85. In the case of `CC[C@H](C)[C@H](NC(=O)[C@@H](N)CCCNC(=N)N)C(=O)N[C@@H](CC(C)C)C(=O)N[C@@H](Cc1ccccc1)C(=O)N[C@@H](CCCNC(=N)N)C(=O)N[C@@H](CCCCN)C(=O)N1CCC[C@H]1C(=O)N[C@@H](CO)C(=O)N[C@@H](CC(C)C)C(=O)O` [3102.0787] (H-RILFRKPSL-OH), the pIC50 was 7.49. `CC(C)C[C@H](NC(=O)[C@H](CO)NC(=O)[C@H](Cc1ccccc1)NC(=O)[C@@H]1CCCN1C(=O)[C@H](CCCNC(=N)N)NC(=O)[C@H](CCCNC(=N)N)NC(=O)[C@H](CC(C)C)NC(=O)[C@H](CC(C)C)NC(=O)[C@@H](N)CCCCN)C(=O)O` [3102.0529] (H-KLLRRPFSL-OH) showed a pIC50 of 9.44. Work on `CC[C@H](C)[C@H](NC(=O)[C@@H](N)CS)C(=O)N[C@@H](CCCCN)C(=O)N[C@@H](CO)C(=O)N[C@@H](Cc1c[nH]cn1)C(=O)N[C@@H](CO)C(=O)N[C@H](C(=O)N[C@@H](CO)C(=O)N[C@@H](CC(C)C)C(=O)O)C(C)C` [3102.0647] (H-CIKSHSVSL-OH) yielded a pIC50 of 8.64. Work on `CC[C@H](C)[C@H](NC(=O)[C@H](Cc1c[nH]cn1)NC(=O)[C@H](Cc1ccccc1)NC(=O)[C@H](CCCNC(=N)N)NC(=O)[C@@H](NC(=O)[C@@H](N)CO)[C@@H](C)CC)C(=O)N[C@@H](CCCCN)C(=O)N[C@@H](CCC(=O)O)C(=O)N[C@@H](CC(C)C)C(=O)O` [3102.0695] (H-SIRFHIKEL-OH) yielded a pIC50 of 9.35. `CC[C@H](C)[C@H](NC(=O)[C@H](CCCNC(=N)N)NC(=O)[C@@H](NC(=O)[C@H](CCCCN)NC(=O)[C@H](CCCCN)NC(=O)[C@@H](N)CO)[C@@H](C)O)C(=O)N[C@@H](CO)C(=O)N[C@@H](CC(=O)O)C(=O)N[C@@H](CC(C)C)C(=O)O` [3102.0741] (H-SKKTRISDL-OH) showed a pIC50 of 8.55. `CC(C)C[C@H](NC(=O)[C@@H](NC(=O)[C@H](CCCCN)NC(=O)[C@H](Cc1ccccc1)NC(=O)[C@H](CCCCN)NC(=O)[C@@H](NC(=O)[C@H](CC(N)=O)NC(=O)[C@H](CC(C)C)NC(=O)[C@@H](N)CO)[C@@H](C)O)[C@@H](C)O)C(=O)O` [3102.0746] (H-SLNTKFKTL-OH) gave a pIC50 of 8.06. In the case of `CC(C)C[C@H](NC(=O)[C@H](CCCNC(=N)N)NC(=O)[C@H](CCCCN)NC(=O)[C@H](CC(N)=O)NC(=O)[C@H](CCCNC(=N)N)NC(=O)[C@H](CC(C)C)NC(=O)[C@H](CCCNC(=N)N)NC(=O)[C@H](CCCNC(=N)N)NC(=O)[C@@H](N)Cc1c[nH]cn1)C(=O)O` [3102.0641] (H-HRRLRNKRL-OH), the pIC50 was 7.55. Compound `CSCC[C@H](N)C(=O)N[C@@H](CC(C)C)C(=O)N[C@@H](CC(C)C)C(=O)N[C@@H](CS)C(=O)N[C@@H](Cc1c[nH]cn1)C(=O)N[C@@H](CCCCN)C(=O)N1CCC[C@H]1C(=O)N[C@H](C(=O)N[C@@H](CC(C)C)C(=O)O)[C@@H](C)O` [3102.0644] (H-MLLCHKPTL-OH) has a pIC50 of 7.72. For `CC[C@H](C)[C@H](NC(=O)[C@H](CCCCN)NC(=O)[C@H](Cc1c[nH]cn1)NC(=O)[C@H](CCCCN)NC(=O)[C@@H](NC(=O)[C@H](CCCCN)NC(=O)[C@H](CO)NC(=O)[C@@H](N)CCSC)[C@@H](C)CC)C(=O)N[C@@H](Cc1ccccc1)C(=O)O` [3102.0769] (H-MSKIKHKIF-OH), the pIC50 was 9.08. `CC[C@H](C)[C@H](NC(=O)[C@H](Cc1ccc(O)cc1)NC(=O)[C@H](CCSC)NC(=O)[C@H](CC(C)C)NC(=O)[C@@H](N)CCC(=O)O)C(=O)N[C@@H](Cc1ccccc1)C(=O)N[C@@H](C)C(=O)N[C@@H](C)C(=O)N[C@@H](CC(C)C)C(=O)O` [3102.0539] (H-ELMYIFAAL-OH) gave a pIC50 of 7.52. In the case of `CC[C@H](C)[C@H](NC(=O)[C@H](Cc1ccccc1)NC(=O)[C@H](CCCCN)NC(=O)[C@@H](NC(=O)[C@@H](N)Cc1ccc(O)cc1)[C@@H](C)CC)C(=O)N[C@@H](Cc1ccccc1)C(=O)N[C@@H](CC(C)C)C(=O)N[C@@H](CCC(N)=O)C(=O)N[C@@H](CCSC)C(=O)O` [3102.0918] (H-YIKFIFLQM-OH), the pIC50 was 8.07. In the case of `CC[C@H](C)[C@H](N)C(=O)N[C@@H](CC(C)C)C(=O)N[C@@H](CCCNC(=N)N)C(=O)N[C@@H](CCCCN)C(=O)N[C@H](C(=O)N[C@@H](Cc1ccccc1)C(=O)N[C@@H](Cc1ccc(O)cc1)C(=O)N[C@@H](CO)C(=O)N[C@H](C(=O)O)C(C)C)[C@@H](C)CC` [3102.0538] (H-ILRKIFYSV-OH), the pIC50 was 10.00. `CC[C@H](C)[C@H](NC(=O)[C@H](CCSC)NC(=O)[C@@H](NC(=O)[C@H](CCCCN)NC(=O)[C@H](CC(C)C)NC(=O)[C@@H](N)CO)[C@@H](C)CC)C(=O)N[C@@H](CCC(N)=O)C(=O)N[C@@H](CO)C(=O)N[C@@H](CCSC)C(=O)O` [3102.0631] (H-SLKIMIQSM-OH) was tested, and the pIC50 was 8.60. In the case of `CC(C)C[C@H](NC(=O)[C@@H](N)Cc1ccc(O)cc1)C(=O)N[C@@H](CCCNC(=N)N)C(=O)N[C@H](C(=O)N[C@@H](CCCCN)C(=O)N1CCC[C@H]1C(=O)N[C@@H](C)C(=O)N[C@@H](CO)C(=O)N[C@@H](C)C(=O)O)[C@@H](C)O` [3102.0686] (H-YLRTKPASA-OH), the pIC50 was 8.82. With `CSCC[C@H](NC(=O)[C@H](CCC(N)=O)NC(=O)[C@@H](N)CO)C(=O)N[C@@H](CCC(=O)O)C(=O)N[C@@H](CCCNC(=N)N)C(=O)N[C@@H](Cc1ccccc1)C(=O)N[C@@H](CC(N)=O)C(=O)N[C@@H](CS)C(=O)N[C@@H](CO)C(=O)O` [3102.0586] (H-SQMERFNCS-OH) the pIC50 was 7.41. `CSCC[C@H](NC(=O)[C@H](Cc1ccccc1)NC(=O)CNC(=O)[C@@H](N)[C@@H](C)O)C(=O)N[C@@H](CCCNC(=N)N)C(=O)N[C@@H](Cc1ccccc1)C(=O)N[C@@H](Cc1ccccc1)C(=O)N[C@@H](CCC(N)=O)C(=O)N[C@@H](CC(C)C)C(=O)O` [3102.0731] (H-TGFMRFFQL-OH) showed a pIC50 of 9.01. `CC[C@H](C)[C@H](NC(=O)[C@H](CC(C)C)NC(=O)[C@H](CCSC)NC(=O)[C@H](CCCNC(=N)N)NC(=O)[C@@H](NC(=O)[C@H](Cc1ccccc1)NC(=O)[C@@H](NC(=O)[C@@H](N)CO)[C@@H](C)CC)[C@@H](C)CC)C(=O)N[C@@H](CC(C)C)C(=O)O` [3102.0701] (H-SIFIRMLIL-OH) was tested, and the pIC50 was 8.00. For `CSCC[C@H](N)C(=O)N[C@@H](CCCNC(=N)N)C(=O)N[C@@H](Cc1ccccc1)C(=O)N[C@@H](CCCCN)C(=O)N[C@@H](CCCCN)C(=O)N[C@@H](CCC(=O)O)C(=O)N[C@@H](CO)C(=O)N[C@@H](CO)C(=O)N[C@@H](CC(C)C)C(=O)O` [3102.0545] (H-MRFKKESSL-OH), the pIC50 was 8.47. `CC(C)C[C@H](NC(=O)[C@H](CO)NC(=O)CNC(=O)[C@@H]1CCCN1C(=O)[C@H](CCCNC(=N)N)NC(=O)[C@H](Cc1ccccc1)NC(=O)[C@H](CCCCN)NC(=O)[C@H](Cc1ccccc1)NC(=O)[C@@H](N)CO)C(=O)O` [3102.0734] (H-SFKFRPGSL-OH) gave a pIC50 of 8.52. `CSCC[C@H](NC(=O)[C@H](C)NC(=O)[C@@H](NC(=O)[C@@H](N)C(C)C)C(C)C)C(=O)N[C@@H](CCCNC(=N)N)C(=O)N[C@@H](Cc1c[nH]cn1)C(=O)N[C@@H](CC(C)C)C(=O)N[C@@H](CO)C(=O)N[C@@H](CC(C)C)C(=O)O` [3102.0557] (H-VVAMRHLSL-OH) was tested, and the pIC50 was 9.01. In the case of `CSCC[C@H](N)C(=O)N[C@@H](Cc1ccccc1)C(=O)NCC(=O)N[C@H](C(=O)N[C@@H](CCCNC(=N)N)C(=O)N[C@@H](CCCCN)C(=O)N[C@@H](CC(N)=O)C(=O)N[C@@H](CO)C(=O)N[C@@H](Cc1ccccc1)C(=O)O)[C@@H](C)O` [3102.0718] (H-MFGTRKNSF-OH), the pIC50 was 8.70. In the case of `CC[C@H](C)[C@H](NC(=O)[C@H](CCCNC(=N)N)NC(=O)[C@H](CCCCN)NC(=O)[C@H](CCSC)NC(=O)[C@@H](NC(=O)[C@@H](N)CC(N)=O)C(C)C)C(=O)N[C@@H](CC(N)=O)C(=O)N[C@@H](CS)C(=O)N[C@@H](Cc1ccccc1)C(=O)O` [3102.0558] (H-NVMKRINCF-OH), the pIC50 was 7.70. Compound `CC[C@H](C)[C@H](NC(=O)[C@H](CC(N)=O)NC(=O)[C@H](CCCCN)NC(=O)[C@H](Cc1ccccc1)NC(=O)[C@H](CCCNC(=N)N)NC(=O)[C@H](CC(N)=O)NC(=O)[C@H](CCSC)NC(=O)[C@H](CC(C)C)NC(=O)[C@@H](N)Cc1ccc(O)cc1)C(=O)O` [3102.0642] (H-YLMNRFKNI-OH) has a pIC50 of 8.89. `CSCC[C@H](NC(=O)[C@H](C)NC(=O)[C@H](CC(C)C)NC(=O)[C@H](CO)NC(=O)[C@H](CCCCN)NC(=O)[C@H](CCSC)NC(=O)[C@H](CCCNC(=N)N)NC(=O)[C@H](CCCCN)NC(=O)[C@@H](N)CC(=O)O)C(=O)O` [3102.0560] (H-DKRMKSLAM-OH) showed a pIC50 of 8.00. In the case of `CC(C)C[C@H](NC(=O)[C@@H](N)CC(C)C)C(=O)N[C@@H](CCCCN)C(=O)N[C@@H](Cc1ccccc1)C(=O)N[C@@H](CCCNC(=N)N)C(=O)N[C@H](C(=O)N[C@@H](CCC(=O)O)C(=O)N[C@@H](CO)C(=O)N[C@@H](CS)C(=O)O)C(C)C` [3102.0675] (H-LLKFRVESC-OH), the pIC50 was 7.13. With `CC[C@H](C)[C@H](N)C(=O)N[C@@H](CCSC)C(=O)N[C@@H](CCCNC(=N)N)C(=O)N[C@@H](CCSC)C(=O)N[C@@H](CCCNC(=N)N)C(=O)N[C@@H](Cc1ccccc1)C(=O)N[C@@H](CCCCN)C(=O)N[C@@H](CCCCN)C(=O)NCC(=O)O` [3102.0777] (H-IMRMRFKKG-OH) the pIC50 was 7.21. With `CC(C)C[C@H](NC(=O)[C@H](CCCNC(=N)N)NC(=O)[C@H](C)NC(=O)[C@H](CC(N)=O)NC(=O)[C@H](CCCNC(=N)N)NC(=O)[C@H](C)NC(=O)CNC(=O)[C@@H]1CCCN1C(=O)[C@@H](N)CC(N)=O)C(=O)O` [3102.0722] (H-NPGARNARL-OH) the pIC50 was 8.21. `CC(C)C[C@H](NC(=O)[C@H](CO)NC(=O)[C@@H](NC(=O)[C@H](CC(C)C)NC(=O)[C@H](CO)NC(=O)[C@H](CCC(N)=O)NC(=O)[C@H](CCCCN)NC(=O)[C@H](CC(N)=O)NC(=O)[C@@H](N)Cc1ccc(O)cc1)C(C)C)C(=O)O` [3102.0646] (H-YNKQSLVSL-OH) showed a pIC50 of 7.52. With `CC[C@H](C)[C@H](NC(=O)[C@@H]1CCCN1C(=O)[C@@H](N)CCC(=O)O)C(=O)N[C@@H](CCCCN)C(=O)N[C@@H](Cc1c[nH]cn1)C(=O)N[C@@H](CCCCN)C(=O)N[C@@H](Cc1ccc(O)cc1)C(=O)N1CCC[C@H]1C(=O)N[C@@H](CC(C)C)C(=O)O` [3102.0624] (H-EPIKHKYPL-OH) the pIC50 was 8.89.
